Measurements from US20210205292A1, “INHIBITORS OF CREB-CBP INTERACTION FOR TREATMENT OF LEUKEMIA” (The Board of Trustees of the Leland Stanford Junior …, priority 2016, published 2021).

Experiments:
[1] = system: normal bone marrow cells; assay: Normal bone marrow samples, viability; type: cell-based, human; settings: 72 hours
[2] = system: Caspase-3; assay: Caspase-3 protease activity (ApoTarget kit); type: cell-based; design: unit of the concentration uncertain
From the text: The ApoTarget Caspase-3 Protease Activity Kit (Invitrogen) was used per manufacturer's instructions.
The balance between pro- and anti-apoptotic protein expression contributes to cell fate decisions. CREB regulates the expression of several anti-apoptotic proteins, including Bcl-2, Bcl-XL and Mcl-1. Bcl-2 expression in particular is known to mediate resistance to chemotherapy and influence clinical outcome in a number of cancer types, including AML. The ability of Compound A to cause apoptosis by disrupting the CREB-driven expression of these anti-apoptotic proteins was examined. In HL-60 cells treated with Compound A, apoptosis is induced in a dose- and time-dependent manner. […] Compound A elicited apoptosis through the intrinsic apoptosis pathway, with activation of Caspase-3 (FIG. 5, panel B) and detectable Caspase-9 cleavage (data not shown). Relative caspase-3 activity at 24 hours: 5.4±0.8 for etoposide, 1±0.78, 0.93±0.71, 1.02±0.67, 2.9±0.58, 5.1±0.63, 4.1±0.71 for 0, 1, 1.5, 2, 2.5 and 3 mM Compound A, respectively. Activity at 72 hours: 1.2±0.05 for etoposide, 1.0±0.02, 1.9±0.03, 3.7±0.04, 4.4±0.05, 2.1±0.03, 1.9±0.02 for 0, 1, 1.5, 2, 2.5 and 3 mM Compound A, respectively. The transcription of Bcl-2 decreased following 72 hours of 2 mM Compound A treatment (FIG. 5, panel C), and this was verified by Western blot analysis (FIG. 5, panel D). […] To confirm whether loss of Bcl-2 function alone is sufficient to induce apoptosis in AML cells, HL-60 cells were treated with the validated Bcl-2 inhibitor ABT-737 (50 to 200 nM). […] Bcl-2 levels are influenced by CREB expression in these AML cell lines (FIG. 11, panel C).

[3] = system: KG-1 cells; assay: Viable cell count of engineered KG-1 cell lines (CREB KD, GFP, CREB OE, CBP OE); type: cell-based; settings: Homo sapiens, KG-1, 48 h, 48 hours
Protocol: AML cell lines were purchased from ATCC and maintained with IMDM (Gibco) supplemented with 10% FBS (Fisher Scientific) and 1% PSG (Gibco). Cells were plated at a density of 2-4×10^5 cells/ml, and treated with various doses of Compound A in 0.1% DMSO or 0.1% DMSO alone. Cell counts and viability were determined using the Vi-CELL XR Cell Viability Analyzer (Beckman Coulter). HL-60 and KG-1 cells overexpressing CREB or CBP were generated using lentiviral gene delivery with subsequent puromycin selection and FACs sorting for GFP. CREB knockdown was achieved by infecting cells with a lentivirus expressing the shRNA sequence 5′-[…]-3′ (SEQ ID NO:). For chemotherapy combination experiments, combination index values were calculated using median effects analysis on Calcusyn software. Human patient bone marrow samples were cultured in DMEM plus 20% FBS and 1×PSG, supplemented with recombinant GM-CSF (20 ng/ml), G-CSF (20 ng/ml), SCF (50 ng/ml), IL-3 (20 ng/ml), and IL-6 (10 ng/ml). Cells were plated at a concentration of 1×10^5 cells/ml in a 12-well plate. Vehicle (0.1% DMSO) or Compound A (2 μM) was added for up to 72 hours. All samples contained >85% AML blasts and were not sorted prior to performing experiments. Immunostaining and flow cytometry analyses were performed according to standard procedures. All antibodies were purchased from BD Biosciences. Single cell suspensions of bone marrow culture were subsequently analyzed on a D×P10 flow cytometer (Cytek). Bone marrow from AML patients were collected through voluntary patient participation at University of California, Los Angeles (Los Angeles, Calif., USA) and Stanford University (Palo Alto, Calif., USA) in compliance with the Institutional Review Board regulations of each institution.
To test the effects of CREB inhibition on AML cells, four AML cell lines were treated with doses of Compound A ranging from 100 pM to 10 μM for 48 hours. […] KG-1 cells were less sensitive to Compound A and expressed lower levels of CREB compared to HL-60 cells (FIG. 2, panel A). CREB was overexpressed to determine whether sensitivity of KG-1 cells to Compound A could be increased. KG-1 cell lines in which CREB or CBP was overexpressed, or CREB was knocked down by shRNA, were generated (FIG. 2C). A KG-1 cell line expressing only GFP was used as a control. These cell lines were treated with a range of Compound A concentrations for 48 hours (FIG. 2D). Experiments were also performed to examine the efficacy of combining Compound A with cytarabine or daunorubicin, standard drugs used in AML therapy.

**Q.** What does the source list for `N#Cc1ccc(NC(=O)c2cc3ccccc3cc2O)cc1` [Compound A, N-(4-cyanophenyl)-3-hydroxy-2-naphthamide]?
**A.** viability of normal bone marrow cells [1]: did not significantly change; relative caspase-3 activity ([2]; 24 hours, 1 (unit uncertain)): 0.93±0.71; relative caspase-3 activity ([2]; 24 hours, 1.5 (unit uncertain)): 1.02±0.67; relative caspase-3 activity ([2]; 24 hours, 2 (unit uncertain)): 2.9±0.58; relative caspase-3 activity ([2]; 24 hours, 2.5 (unit uncertain)): 5.1±0.63; relative caspase-3 activity ([2]; 24 hours, 3 (unit uncertain)): 4.1±0.71; relative caspase-3 activity ([2]; 72 hours, 1 (unit uncertain)): 1.9±0.03; relative caspase-3 activity ([2]; 72 hours, 1.5 (unit uncertain)): 3.7±0.04; relative caspase-3 activity ([2]; 72 hours, 2 (unit uncertain)): 4.4±0.05; relative caspase-3 activity ([2]; 72 hours, 2.5 (unit uncertain)): 2.1±0.03; relative caspase-3 activity ([2]; 72 hours, 3 (unit uncertain)): 1.9±0.02; IC50 ([3]; KG-1 CBP OE): 826 nM; IC50 ([3]; KG-1 CREB KD): 1790 nM; IC50 ([3]; KG-1 CREB OE): 687 nM; IC50 ([3]; KG-1 GFP control): 1040 nM
